# Results: ChEMBL document CHEMBL6083182, “Development of Peptide Paratope Mimics Derived from the Anti-ROR1 Antibody and Long-Acting Peptide-Drug Conjugates for Targeted Cancer Therapy” (J Med Chem, 2024)
# pIC50, pKd: −log10 of the molar value. Active and inactive are the calls of the source. The rule behind the calls is not given here. *1 amine or outer side, *2 acyl side, *3 side chain or, on linkers, in order; H or OH if unused. Where a SMILES comes first, the peptide text is derived from it. [ ]: non-standard residue; d: D form. The star is where a group is joined. ξ: configuration not given here. Glutaryl(5-(14-O-Dox)) = COc1cccc2c1C(=O)c1c(O)c3c(c(O)c1C2=O)C[C@@](O)(C(=O)COC(=O)CCCC(=O)*)C[C@@H]3O[C@H]1C[C@H](N)[C@H](O)[C@H](C)O1; X7 = COc1cccc2c1C(=O)c1c(O)c3c(c(O)c1C2=O)C[C@@](O)(C(=O)CO)C[C@@H]3O[C@H]1C[C@H](NC(=O)CCCCCN2C(=O)CC(*)C2=O)[C@H](O)[C@H](C)O1; X5 = O=C(O)CCCCCCCCCCCCCCCCC(=O)NC(CCC(=O)NCCOCCOCC(=O)NCCOCCOCC(=O)NC(CCCCNC(=O)CCN1C(=O)CC(*)C1=O)C(=O)O)C(=O)O; X3 = CC(C)C(NC(=O)CCCCCN1C(=O)CC(*)C1=O)C(=O)NC(CCCNC(N)=O)C(=O)Nc1ccc(OCC2OC(n3ccc(N)nc3=O)C(F)(F)C2O)cc1; X6 = Nc1ccn(C2OC(COC(=O)CCCCCN3C(=O)CC(*)C3=O)C(O)C2(F)F)c(=O)n1; X2 = NC(=O)C[C@H](N[*:1])C(=O)C[C@@H](CC(=O)O)C(=O)[*:2]; X4 = Nc1ccn(C2OC(COC(=O)CCCC(=O)*)C(O)C2(F)F)c(=O)n1; C18 diacid = O=C(O)CCCCCCCCCCCCCCCCC(=O)*; ξγGlu = O=C(O)C(CCC(=O)[*:2])N[*:1]; AEEA = NCCOCCOCC(=O)O
# Tests used:
# MDA-MB-231 = experiment: Cytotoxicity against ROR1-positive human MDA-MB-231 cells assessed as decrease in cell viability incubated for 24 hrs by CCK-8 assay; assay type: functional, cell-based; conditions: MDA-MB-231, 24 h
# SK-HEP1 = experiment: Cytotoxicity against human SK-HEP1 cells assessed as decrease in cell viability incubated for 24 hrs by CCK-8 assay; assay type: functional, cell-based; conditions: SK-HEP1, 24 h
# [1] = Cytotoxicity against human MCF-10A cells assessed as decrease in cell viability incubated for 24 hrs by CCK-8 assay; assay type: toxicity, cell-based
# [2] = molecular target: T1, Inactive tyrosine-protein kinase transmembrane receptor ROR1 (Homo sapiens, UniProt Q01973); experiment: Binding affinity to N-terminal His/GST-tagged recombinant human ROR1 (453 to 783 residues) extracted from baculovirus infected insect cells assessed as dissociation constant by SPR analysis
# T1 sequence (Q01973 whole entry, the tested form may be a part): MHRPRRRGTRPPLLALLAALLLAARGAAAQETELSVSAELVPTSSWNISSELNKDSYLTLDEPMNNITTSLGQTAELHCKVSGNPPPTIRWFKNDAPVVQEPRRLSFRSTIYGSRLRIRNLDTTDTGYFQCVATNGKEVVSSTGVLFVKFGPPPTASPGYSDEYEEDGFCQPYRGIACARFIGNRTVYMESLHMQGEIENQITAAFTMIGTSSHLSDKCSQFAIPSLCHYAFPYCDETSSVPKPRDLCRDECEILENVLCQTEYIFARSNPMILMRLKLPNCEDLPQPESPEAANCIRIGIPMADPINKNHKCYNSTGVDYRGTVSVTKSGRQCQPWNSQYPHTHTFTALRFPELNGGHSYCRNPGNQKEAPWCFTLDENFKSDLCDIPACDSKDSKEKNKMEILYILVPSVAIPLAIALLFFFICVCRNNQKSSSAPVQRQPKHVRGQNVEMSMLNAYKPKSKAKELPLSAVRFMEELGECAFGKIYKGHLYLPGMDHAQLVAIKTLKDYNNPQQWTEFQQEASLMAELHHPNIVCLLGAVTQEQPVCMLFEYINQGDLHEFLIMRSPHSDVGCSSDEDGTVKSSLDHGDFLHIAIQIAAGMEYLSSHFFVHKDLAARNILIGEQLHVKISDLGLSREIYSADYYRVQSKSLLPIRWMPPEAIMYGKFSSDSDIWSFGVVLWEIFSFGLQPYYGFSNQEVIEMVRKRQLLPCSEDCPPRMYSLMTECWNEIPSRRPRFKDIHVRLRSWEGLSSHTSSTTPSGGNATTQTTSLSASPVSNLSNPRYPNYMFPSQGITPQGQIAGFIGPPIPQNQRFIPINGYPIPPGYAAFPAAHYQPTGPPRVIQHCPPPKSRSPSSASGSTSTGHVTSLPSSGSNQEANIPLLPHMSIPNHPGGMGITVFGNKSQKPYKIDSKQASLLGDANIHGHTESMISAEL
# MCF7 [3] = experiment: Cytotoxicity against ROR1-negative human MCF7 cells assessed as decrease in cell viability incubated for 24 hrs by CCK-8 assay; assay type: functional, cell-based; conditions: MCF7, 24 h
# Homo sapiens = species: Homo sapiens; experiment: Binding affinity to CD16A (unknown origin) by SPR analysis
# [4] = molecular target: T1, Inactive tyrosine-protein kinase transmembrane receptor ROR1; experiment: Binding affinity to ROR1 positive human MDA-MB-231 cells at 10 uM administered as FITC-labeled compound and measured after 30 mins by Hoechst 33342 staining based confocal fluorescence microscopic analysis; assay type: cell-based
# MCF7 [5] = experiment: Binding affinity to ROR1 negative human MCF7 cells at 10 uM administered as FITC-labeled compound and measured after 30 mins by Hoechst 33342 staining based confocal fluorescence microscopic analysis; assay type: functional, cell-based
molecule,measurement,setting,value
CC[C@H](C)[C@H](NC(=O)[C@H](CC(=O)O)NC(=O)[C@H](CO)NC(=O)CNC(=O)[C@H](CSC1CC(=O)N(CCC(=O)NCCCCC(NC(=O)COCCOCCNC(=O)COCCOCCNC(=O)CCC(NC(=O)CCCCCCCCCCCCCCCCC(=O)O)C(=O)O)C(=O)O)C1=O)NC(=O)CNC(=O)[C@H](CCCCN)NC(=O)CCCC(=O)OCC1OC(n2ccc(N)nc2=O)C(F)(F)C1O)C(=O)N[C@@H](CC(N)=O)C(=O)N[C@@H](CC(=O)O)C(=O)N[C@@H](CCCNC(=N)N)C(=O)N[C@@H](CCC(N)=O)C(=O)N[C@H](C(=O)N1CCC[C@H]1C(=O)NCC(=O)N[C@@H](Cc1ccc(O)cc1)C(=O)N[C@@H](CO)C(=O)N[C@H](C(=O)N[C@@H](Cc1ccc(O)cc1)C(=O)N[C@@H](Cc1c[nH]c2ccccc12)C(=O)NCC(=O)N[C@@H](CC(=O)O)C(=O)N[C@@H](Cc1ccccc1)C(N)=O)[C@@H](C)O)[C@@H](C)CC (some centres not stated) (X4-KGC(X5)GSDINDRQIPGYSTYWGDF-NH2),pIC50,MDA-MB-231,6.52
same,pIC50,SK-HEP1,5.12
same,IC50 at 24 h,[1],27.9 µM
same,pKd,[2],7.40
same,pIC50,MCF7 [3],4.75
CC[C@H](C)[C@H](NC(=O)[C@H](CC(=O)O)NC(=O)[C@H](CO)NC(=O)CNC(=O)[C@H](CSC1CC(=O)N(CCCCCC(=O)NC(C(=O)NC(CCCNC(N)=O)C(=O)Nc2ccc(OCC3OC(n4ccc(N)nc4=O)C(F)(F)C3O)cc2)C(C)C)C1=O)NC(=O)CNC(=O)[C@H](CCCCN)NC(=O)COCCOCCNC(=O)COCCOCCNC(=O)CCC(NC(=O)CCCCCCCCCCCCCCCCC(=O)O)C(=O)O)C(=O)N[C@@H](CC(N)=O)C(=O)C[C@@H](CC(=O)O)C(=O)N[C@@H](CCCNC(=N)N)C(=O)N[C@@H](CCC(N)=O)C(=O)N[C@H](C(=O)N1CCC[C@H]1C(=O)NCC(=O)N[C@@H](Cc1ccc(O)cc1)C(=O)N[C@@H](CO)C(=O)N[C@H](C(=O)N[C@@H](Cc1ccc(O)cc1)C(=O)N[C@@H](Cc1c[nH]c2ccccc12)C(=O)NCC(=O)N[C@@H](CC(=O)O)C(=O)N[C@@H](Cc1ccccc1)C(N)=O)[C@@H](C)O)[C@@H](C)CC (some centres not stated) ({C18 diacid-ξγGlu-AEEA-AEEA}-KGC(X3)GSDI[X2]RQIPGYSTYWGDF-NH2),pIC50,MDA-MB-231,5.17
same,pIC50,SK-HEP1,5.91
same,IC50 at 24 h,[1],14.6 µM
same,pKd,[2],7.55
same,pIC50,MCF7 [3],< 4.30
CC[C@H](C)[C@H](NC(=O)[C@H](CC(=O)O)NC(=O)[C@H](CO)NC(=O)CNC(=O)[C@H](CSC1CC(=O)N(CCCCCC(=O)OCC2OC(n3ccc(N)nc3=O)C(F)(F)C2O)C1=O)NC(=O)CNC(=O)[C@H](CCCCN)NC(=O)COCCOCCNC(=O)COCCOCCNC(=O)CCC(NC(=O)CCCCCCCCCCCCCCCCC(=O)O)C(=O)O)C(=O)N[C@@H](CC(N)=O)C(=O)N[C@@H](CC(=O)O)C(=O)N[C@@H](CCCNC(=N)N)C(=O)N[C@@H](CCC(N)=O)C(=O)N[C@H](C(=O)N1CCC[C@H]1C(=O)NCC(=O)N[C@@H](Cc1ccc(O)cc1)C(=O)N[C@@H](CO)C(=O)N[C@H](C(=O)N[C@@H](Cc1ccc(O)cc1)C(=O)N[C@@H](Cc1c[nH]c2ccccc12)C(=O)NCC(=O)N[C@@H](CC(=O)O)C(=O)N[C@@H](Cc1ccccc1)C(N)=O)[C@@H](C)O)[C@@H](C)CC (some centres not stated) ({C18 diacid-ξγGlu-AEEA-AEEA}-KGC(X6)GSDINDRQIPGYSTYWGDF-NH2),pIC50,MDA-MB-231,4.80
same,pIC50,SK-HEP1,4.58
same,IC50 at 24 h,[1],30.1 µM
same,pKd,[2],6.91
same,pIC50,MCF7 [3],4.78
CC[C@H](C)[C@H](NC(=O)[C@H](CC(=O)O)NC(=O)[C@H](CO)NC(=O)CNC(=O)[C@H](CSC1CC(=O)N(CCCCCC(=O)N[C@H]2C[C@H](O[C@H]3C[C@](O)(C(=O)CO)Cc4c(O)c5c(c(O)c43)C(=O)c3c(OC)cccc3C5=O)O[C@@H](C)[C@H]2O)C1=O)NC(=O)CNC(=O)[C@H](CCCCN)NC(=O)COCCOCCNC(=O)COCCOCCNC(=O)[C@H](CCC(=O)O)NC(=O)CCCCCCCCCCCCCCCCC(=O)O)C(=O)N[C@@H](CC(N)=O)C(=O)N[C@@H](CC(=O)O)C(=O)N[C@@H](CCCNC(=N)N)C(=O)N[C@@H](CCC(N)=O)C(=O)N[C@H](C(=O)N1CCC[C@H]1C(=O)NCC(=O)N[C@@H](Cc1ccc(O)cc1)C(=O)N[C@@H](CO)C(=O)N[C@H](C(=O)N[C@@H](Cc1ccc(O)cc1)C(=O)N[C@@H](Cc1c[nH]c2ccccc12)C(=O)NCC(=O)N[C@@H](CC(=O)O)C(=O)N[C@@H](Cc1ccccc1)C(N)=O)[C@@H](C)O)[C@@H](C)CC (some centres not stated) ({C18 diacid}-E[AEEA][AEEA]KGC(X7)GSDINDRQIPGYSTYWGDF-NH2),pIC50,MDA-MB-231,4.84
same,pIC50,SK-HEP1,4.70
same,IC50 at 24 h,[1],27.3 µM
same,pKd,[2],6.82
same,pIC50,MCF7 [3],4.45
CC[C@H](C)[C@H](NC(=O)[C@H](CC(=O)O)NC(=O)[C@H](CO)NC(=O)CNC(=O)[C@H](CSC1CC(=O)N(CCC(=O)NCCCCC(NC(=O)COCCOCCNC(=O)COCCOCCNC(=O)CCC(NC(=O)CCCCCCCCCCCCCCCCC(=O)O)C(=O)O)C(=O)O)C1=O)NC(=O)CNC(=O)[C@H](CCCCN)NC(=O)CCCC(=O)OCC(=O)[C@]1(O)Cc2c(O)c3c(c(O)c2[C@@H](O[C@H]2C[C@H](N)[C@H](O)[C@H](C)O2)C1)C(=O)c1c(OC)cccc1C3=O)C(=O)N[C@@H](CC(N)=O)C(=O)N[C@@H](CC(=O)O)C(=O)N[C@@H](CCCNC(=N)N)C(=O)N[C@@H](CCC(N)=O)C(=O)N[C@H](C(=O)N1CCC[C@H]1C(=O)NCC(=O)N[C@@H](Cc1ccc(O)cc1)C(=O)N[C@@H](CO)C(=O)N[C@H](C(=O)N[C@@H](Cc1ccc(O)cc1)C(=O)N[C@@H](Cc1c[nH]c2ccccc12)C(=O)NCC(=O)N[C@@H](CC(=O)O)C(=O)N[C@@H](Cc1ccccc1)C(N)=O)[C@@H](C)O)[C@@H](C)CC (some centres not stated) ({Glutaryl(5-(14-O-Dox))}-KGC(X5)GSDINDRQIPGYSTYWGDF-NH2),pIC50,MDA-MB-231,5.55
same,pIC50,SK-HEP1,5.90
same,IC50 at 24 h,[1],10.1 µM
same,pKd,[2],7.18
same,pIC50,MCF7 [3],4.77
Nc1ccn([C@@H]2O[C@H](CO)[C@@H](O)C2(F)F)c(=O)n1 [GEMCITABINE],pIC50,MDA-MB-231,5.75
same,pIC50,SK-HEP1,5.44
same,IC50 at 24 h,[1],3.23 µM
same,pIC50,MCF7 [3],5.32
H-GYSTYWGDF-NH2,pKd,[2],6.83
H-INSGPGYSTYYGDF-NH2,Activity,Homo sapiens,Not active; Abnormal Binding Affinity Curves Observed
same,Activity,[4],Active
same,Activity,MCF7 [5],inactive
same,pKd,[2],8.92
H-INSGPSDINDRQIPGYSTYWGDF-NH2,pKd,[2],6.58
H-INSGPSDINDYPI-NH2,pKd,[2],7.39
H-INSGPSDINDYPIPGYSTYYGDF-NH2,pKd,[2],6.15
H-SDINDRQI-NH2,pKd,[2],7.58
H-SDINDYPIPGYSTYYGDF-NH2,Activity,Homo sapiens,Not active; Abnormal Binding Affinity Curves Observed
same,Activity,[4],Active
same,Activity,MCF7 [5],inactive
same,pKd,[2],8.53
